Test results taken from patent publication US10214546B2, “Btk inhibitors” (MERCK SHARP & DOHME CORP., priority 2014, dated 2019).
Where two headings read alike, the source gives them in different places.

How the values were obtained:
[1] = test system: adenosine uptake into HeLa cells; assay: [3H]Adenosine uptake assay in HeLa cells; assay type: cell-based; conditions: [3H]adenosine accumulation in HeLa cells, compound range 10 μM to 0.032 nM, read-out: ADU inhibition IC50
Experimental: Compounds are also screened in an adenosine uptake functional cellular assay using the protocol described below:
[^3H]Adenosine Uptake Assay Methods
Adenosine uptake activity was determined by monitoring the accumulation of tritiated adenosine into HeLa cells (ATCC catalog # CCL-2) using a PMT-based radiometric detection instrument. In this assay, the potency (IC50) of each compound was determined from a ten point (1:3 serial dilution; final compound concentration range in assay from 10 µM to […]) titration curve using the following outlined procedure. To each well of a 96-well CytoStar-T scintillating microplate (Perkin Elmer Catalog # RPNQ0163), 25 000 HeLa cells in 100 µL of growth medium comprising: Minimum Essential Media (Life Technologies Catalog #11095-080)+10% (v/v) foetal bovine serum (FBS; Sigma Aldrich Catalog # F2442) was added. These cells were incubated overnight at 37° C. in a humidified atmosphere with 5% (v/v) CO2. After this time the growth medium was removed and replaced with 40 μL assay medium comprising: Hanks balanced salts solution (HBSS; Thermo Fisher Catalog # SH30268.01)+5% (v/v) FBS. Compound stock solutions in DMSO were diluted in assay medium to 2.5× final compound concentration maintaining a constant DMSO concentration of 0.25% (v/v). 40 μL of compound in assay medium was dispensed into individual wells of the Cytostar-T plates and the plates were incubated for 30 minutes under ambient laboratory conditions. Following this incubation, 20 μL of 500 nM [^3H] adenosine (American Radiolabeled Chemicals Inc. […] The amount of radiolabel accumulation was then determined using a Perkin Elmer Topcount NXT microplate reader. In brief, HeLa cells adhere to the bottom of the Cytostar-T plate, uptake of [^3H]adenosine into these cells brings the radiolabel into sufficient proximity to excite the scintillant in the base of the plates. These events are captured by single PMT, time-resolved coincidence counting. IC50 values were determined by 4 parameter robust fit of counts per second values vs. (Log10) compound concentrations.

[2] = target: BTK enzyme (recombinant full-length BTK, hBTK) (Homo sapiens (Human), UniProt Q06187); assay: BTK enzymatic activity LANCE TR-FRET assay; assay type: biochemical; conditions: 50 pM hBTK, 25 μM ATP, 2 μM biotin-A5-peptide; compound range 1 μM to 0.017 nM; read-out: BTK binding IC50
Experimental: Btk Enzyme Activity Assay Methods
BTK enzymatic activity was determined with the LANCE (Lanthanide Chelate Excite) TR-FRET (Time-resolved fluorescence resonance energy transfer) assay. […] Phosphorylation reactions were allowed to proceed for 120 minutes. […] After 60 minutes incubation with detection reagents, reaction plates were read on a PerkinElmer EnVision plate reader using standard TR-FRET protocol. […] IC50 values were determined by 4 parameter robust fit of TR-FRET ratio values vs. (Log10) compound concentrations.

Chain of BTK enzyme (recombinant full-length BTK, hBTK) (Q06187 whole entry): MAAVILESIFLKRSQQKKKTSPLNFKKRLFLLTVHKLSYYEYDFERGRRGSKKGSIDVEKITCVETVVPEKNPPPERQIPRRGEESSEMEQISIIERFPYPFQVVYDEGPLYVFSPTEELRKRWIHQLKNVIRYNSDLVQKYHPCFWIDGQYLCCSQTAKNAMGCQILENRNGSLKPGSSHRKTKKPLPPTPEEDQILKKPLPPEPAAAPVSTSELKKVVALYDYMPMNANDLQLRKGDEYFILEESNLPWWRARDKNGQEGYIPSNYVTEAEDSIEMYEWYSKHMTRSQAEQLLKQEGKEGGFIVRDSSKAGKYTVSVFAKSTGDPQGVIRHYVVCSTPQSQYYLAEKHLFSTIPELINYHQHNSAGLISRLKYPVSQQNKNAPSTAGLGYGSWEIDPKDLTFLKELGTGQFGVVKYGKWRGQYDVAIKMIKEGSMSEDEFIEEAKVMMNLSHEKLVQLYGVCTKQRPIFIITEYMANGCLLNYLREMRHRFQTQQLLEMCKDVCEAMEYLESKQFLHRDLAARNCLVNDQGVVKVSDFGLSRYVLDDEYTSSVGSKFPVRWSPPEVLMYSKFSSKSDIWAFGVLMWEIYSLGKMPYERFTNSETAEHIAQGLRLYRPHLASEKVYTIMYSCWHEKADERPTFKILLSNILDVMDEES

Row | SMILES | IC50 ([1]; Homo sapiens, HeLa) [nM] | IC50 [2] [nM] | IC50 [1] [nM]
1 | Cc1cccc([C@](C)(O)c2ccc(-c3nc([C@@H]4CC[C@H]5CCC(=O)N5C4)n4ccnc(N)c34)cc2)c1 [Example 46, (6R,8aS)-6-(8-amino-1-(4-[(1R)-1-hydroxy-1-(3-methylphenyl)ethyl]phenyl}imidazo[1,5-a]pyrazin-3-yl)hexahydroindolizin-3(2H)-one] | 3210 | 0.23 | 
2 | Cc1ccccc1[C@@](C)(O)c1ccc(-c2nc([C@@H]3CC[C@H]4CCC(=O)N4C3)n3ccnc(N)c23)cc1 [Example 47, (6R,8aS)-6-(8-amino-1-{4-[(1S)-1-hydroxy-1-(2-methylphenyl)ethyl]phenyl}imidazo[1,5-a]pyrazin-3-yl)hexahydroindolizin-3(2H)-one] | 2040 | 183 | 
3 | Cc1ccccc1[C@](C)(O)c1ccc(-c2nc([C@@H]3CC[C@H]4CCC(=O)N4C3)n3ccnc(N)c23)cc1 [Example 48, (6R,8aS)-6-(8-amino-1-{4-[(1R)-1-hydroxy-1-(2-methylphenyl)ethyl]phenyl}imidazo[1,5-a]pyrazin-3-yl)hexahydroindolizin-3(2H)-one] | 3300 | 2.5 | 
4 | COc1ccccc1[C@@](C)(O)c1ccc(-c2nc([C@@H]3CC[C@H]4CCC(=O)N4C3)n3ccnc(N)c23)cc1 [Example 49, (6R,8aS)-6-(8-amino-1-{4-[(1S)-1-hydroxy-1-(2-methoxyphenyl)ethyl]phenyl}imidazo[1,5-a]pyrazin-3-yl)hexahydroindolizin-3(2H)-one] | 2950 | 45.2 | 
5 | COc1ccccc1[C@](C)(O)c1ccc(-c2nc([C@@H]3CC[C@H]4CCC(=O)N4C3)n3ccnc(N)c23)cc1 [Example 50, (6R,8aS)-6-(8-amino-1-{4-[(1R)-1-hydroxy-1-(2-methoxyphenyl)ethyl]phenyl}imidazo[1,5-a]pyrazin-3-yl)hexahydroindolizin-3(2H)-one] | 1220 | 243 | 
6 | C[C@](O)(c1ccc(-c2nc([C@@H]3CC[C@H]4CCC(=O)N4C3)n3ccnc(N)c23)cc1)c1cccc(C2CC2)c1 [Example 51, (6R,8aS)-6-(8-amino-1-{4-[(1S)-1-(3-cyclopropylphenyl)-1-hydroxyethyl]phenyl}imidazo[1,5-a]pyrazin-3-yl)hexahydroindolizin-3(2H)-one] | 569 | 5.9 | 
7 | C[C@@](O)(c1ccc(-c2nc([C@@H]3CC[C@H]4CCC(=O)N4C3)n3ccnc(N)c23)cc1)c1cccc(Cl)c1 [Example 52, (6R,8aS)-6-(8-amino-1-{4-[(1R)-1-(3-chlorophenyl)-1-hydroxyethyl]phenyl}imidazo[1,5-a]pyrazin-3-yl)hexahydroindolizin-3(2H)-one] | 3830 | 0.47 | 
8 | Cc1cccc([C@@](C)(O)c2ccc(-c3nc([C@@H]4CC[C@H]5CCC(=O)N5C4)n4ccnc(N)c34)cc2)c1 [Example 53, (6R,8aS)-6-(8-amino-1-{4-[(1S)-1-hydroxy-1-(3-methylphenyl)ethyl]phenyl}imidazo[1,5-a]pyrazin-3-yl)hexahydroindolizin-3(2H)-one] | 671 | 6.5 | 
9 | CC(O)(c1cccc(C(F)(F)F)c1)c1ccc(-c2nc([C@@H]3CC[C@H]4CCC(=O)N4C3)n3ccnc(N)c23)cc1F (stereo partly drawn) [Example 54, (6R,8aS)-6-[8-amino-1-(3-fluoro-4-{1-hydroxy-1-[3-(trifluoromethyl)phenyl]ethyl}phenyl)imidazo [1,5-a]pyrazin-3-yl]hexahydroindolizin-3(2H)-one] |  | 1000 | 473
10 | CCC(O)(c1ccc(-c2nc([C@@H]3CC[C@H]4CCC(=O)N4C3)n3ccnc(N)c23)cc1)c1cccc(C(F)(F)F)c1 (stereo partly drawn) [Example 55, (6R,8aS)-6-[8-amino-1-(4-{1-hydroxy-1-[3-(trifluoromethyl)phenyl]propyl}phenyl)imidazo [1,5-a]pyrazin-3-yl]hexahydroindolizin-3(2H)-one] |  | 1000 | 400
11 | C[C@](O)(c1ccc(-c2nc([C@@H]3CC[C@H]4CCC(=O)N4C3)n3ccnc(N)c23)cc1)c1cccc(OC(F)(F)F)c1 [Example 56, (6R,8aS)-6-[8-amino-1-(4-{(1S)-1-hydroxy-1-[3-(trifluoromethoxy)phenyl]ethyl}phenyl)imidazo [1,5-a]pyrazin-3-yl]hexahydroindolizin-3(2H)-one] | 901 | 583 | 
12 | C[C@@](O)(c1ccc(-c2nc([C@@H]3CC[C@H]4CCC(=O)N4C3)n3ccnc(N)c23)cc1)c1cccc(OC(F)(F)F)c1 [Example 57, (6R,8aS)-6-[8-amino-1-(4-{(1R)-1-hydroxy-1-[3-(trifluoromethoxy)phenyl]ethyl}phenyl)imidazo [1,5-a]pyrazin-3-yl]hexahydroindolizin-3(2H)-one] | 3320 | 0.88 | 
13 | C[C@](O)(c1ccc(-c2nc([C@@H]3CC[C@H]4CCC(=O)N4C3)n3ccnc(N)c23)cc1)c1cccc(-c2ccccc2)c1 [Example 58, (6R,8aS)-6-(8-amino-1-{4-[(1S)-1-biphenyl-3-yl-1-hydroxyethyl]phenyl}imidazo[1,5-a]pyrazin-3-yl)hexahydroindolizin-3(2H)-one] | 450 | 63.1 | 
14 | C[C@@](O)(c1ccc(-c2nc([C@@H]3CC[C@H]4CCC(=O)N4C3)n3ccnc(N)c23)cc1)c1cccc(-c2ccccc2)c1 [Example 59, (6R,8aS)-6-(8-amino-1-{4-[(1R)-1-biphenyl-3-yl-1-hydroxyethyl]phenyl}imidazo[1,5-a]pyrazin-3-yl)hexahydroindolizin-3(2H)-one] | 1250 | 0.93 | 
15 | CC(O)(c1cccc(C(F)(F)F)c1)c1ccc(-c2nc([C@@H]3CC[C@H]4CCC(=O)N4C3)n3ccnc(N)c23)cc1F (stereo partly drawn) [Example 60, (6R,8aS)-6-[8-amino-1-(3-fluoro-4-{1-hydroxy-1-[3-(trifluoromethyl)phenyl]ethyl}phenyl)imidazo [1,5-a]pyrazin-3-yl]hexahydroindolizin-3(2H)-one] |  | 36.7 | 3360
16 | CCC(O)(c1ccc(-c2nc([C@@H]3CC[C@H]4CCC(=O)N4C3)n3ccnc(N)c23)cc1)c1cccc(C(F)(F)F)c1 (stereo partly drawn) [Example 61, (6R,8aS)-6-[8-amino-1-(4-{1-hydroxy-1-[3-(trifluoromethyl)phenyl]propyl}phenyl)imidazo [1,5-a]pyrazin-3-yl]hexahydroindolizin-3(2H)-one] |  | 72 | 1710
17 | C[C@@](O)(c1ccc(-c2nc([C@@H]3CC[C@H]4CCCN4C3)n3ccnc(N)c23)cc1)c1cccc(C(F)(F)F)c1 [Example 62, (1R)-1-(4-{8-amino-3-[(6R,8aS)-octahydroindolizin-6-yl]imidazo[1,5-a]pyrazin-1-yl}phenyl)-1-[3-(trifluoromethyl)phenyl] ethanol] | 2300 | 19.7 | 
18 | C[C@](O)(c1ccc(-c2nc([C@@H]3CC[C@H]4CCCN4C3)n3ccnc(N)c23)cc1)c1cccc(C(F)(F)F)c1 [Example 63, (1S)-1-(4-{8-amino-3-[(6R,8aS)-octahydroindolizin-6-yl]imidazo[1,5-a]pyrazin-1-yl}phenyl)-1-[3-(trifluoromethyl)phenyl] ethanol] | 1470 | 1000 | 
19 | COc1cc(-c2nc([C@@H]3CC[C@H]4CCC(=O)N4C3)n3ccnc(N)c23)ccc1C(C)(O)c1cccc(C(F)(F)F)c1 (stereo partly drawn) [Example 64, (6R,8aS)-6-[8-amino-1-(4-{1-hydroxy-1-[3-(trifluoromethyl)phenyl]ethyl}-3-methoxyphenyl)imidao [1,5-a]pyrazin-3-yl]hexahydroindolizin-3(2H)-one] |  | 59.1 | 936
20 | COc1cc(-c2nc([C@@H]3CC[C@H]4CCC(=O)N4C3)n3ccnc(N)c23)ccc1C(C)(O)c1cccc(C(F)(F)F)c1 (stereo partly drawn) [Example 65, (6R,8aS)-6-[8-amino-1-(4-{1-hydroxy-1-[3-(trifluoromethyl)phenyl]ethyl}-3-methoxyphenyl)imidazo [1,5-a]pyrazin-3-yl]hexahydroindolizin-3(2H)-one] |  | 7 | 10000
21 | C[C@@](O)(c1ccc(-c2nc([C@@H]3CC[C@H]4CCC(=O)N4C3)n3ccnc(N)c23)cc1)c1cccc(N2CCOCC2)c1 [Example 66, (6R,8aS)-6-(8-amino-1-{4-[(1R)-1-hydroxy-1-(3-morpholin-4-ylphenyl)ethyl]phenyl}imidazo[1,5-a]pyrazin-3-yl)hexahydroindolizin-3(2H)-one] | 4190 | 796 | 
